These results are taken from patent US20090226398A1, “ANTI-VIRAL COMPOUNDS, COMPOSITIONS, AND METHODS OF USE” (Genelabs Technologies, Inc., priority 2008, published 2009).

In general, EC50 refers to the concentration needed to bring the measured effect to its halfway point. Low values mean higher potency in that assay, high ones lower potency in that assay.

Where only a bound is given, the exact number is not on record here.

This experiment has as its system HCV replication. Kind of experiment: Replicon Assay (Huh-lucubineo-ET cells, luciferase readout). The class given is cell-based. The settings on record: Hepatitis C virus; ET (Huh-lucubineo-ET) HCV replicon cell line; luciferase activity 48-72 hours after compound addition; 6 dilutions. In outline:
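Huh-lucubineo-ET cells stably carrying a firefly luciferase-ubiquitin-neo/NS3-5B ET replicon (adaptive mutations E1202G, T1280I, K1846T) were plated 24 h before compound, then treated at 5 or 50 μM or six 3-fold dilutions. Luciferase read 48-72 h later; % inhibition vs no-compound control, EC50/TC50 from Hill-equation fit.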
(In general: Replicon systems follow genome replication, usually without infectious particles.)
Compound `Fc1cccc(-c2nc3cnn(Cc4ccc(Br)cn4)cc-3n2)c1F` [Compound 262, 5-(5-bromo-pyridin-2-ylmethyl)-2-(2,3-difluoro-phenyl)-5H-imidazo[4,5-d]pyridazine] gave an EC50 of no less than 50 µM. The value for `Fc1cccc(-c2nc3cnn(Cc4ccc(C(F)(F)F)cc4C(F)(F)F)cc-3n2)c1F` [Compound 263, 5-(2,4-Bis-trifluoromethyl-benzyl)-2-(2,3-difluoro-phenyl)-5H-imidazo[4,5-d]pyridazine] was no less than 50 µM.

The compound `N#Cc1ccccc1-c1ccc(Cn2cc3nc(-c4cccc(F)c4F)nc-3cn2)cc1` [Compound 264, 4′-[2-(2,3-Difluoro-phenyl)-imidazo[4,5-d]pyridazin-5-ylmethyl]-biphenyl-2-carbonitrile] had an EC50 of 0.892 µM. The value for `COc1ccc(-c2cnc(Cn3cc4nc(-c5cccc(F)c5F)nc-4cn3)nc2)c(C(F)(F)F)c1` [Compound 265, 2-(2,3-Difluoro-phenyl)-5-[5-(4-methoxy-2-trifluoromethyl-phenyl)-pyrimidin-2-ylmethyl]-5H-imidazo[4,5-d]pyridazine] was 0.228 µM; that for `CCCOc1ccc(-c2cnc(Cn3cc4nc(-c5cccc(F)c5F)nc-4cn3)nc2)c(C(F)(F)F)c1` [Compound 266, 2-(2,3-Difluoro-phenyl)-5-[5-(4-propoxy-2-trifluoromethyl-phenyl)-pyrimidin-2-ylmethyl]-5H-imidazo[4,5-d]pyridazine] was 0.218 µM.

Compound `Fc1ccccc1-c1nc2cnn(Cc3ccc(-c4ccc(C(F)(F)F)cc4C(F)(F)F)cn3)cc-2n1` [Compound 267, 5-[5-(2,4-Bis-trifluoromethyl-phenyl)-pyridin-2-ylmethyl]-2-(2-fluoro-phenyl)-5H-imidazo[4,5-d]pyridazine] displayed an EC50 of 1.3 µM. On to `Cc1nc(-c2ccc(Cn3cc4nc(-c5cccc(F)c5F)nc-4cn3)cc2)cs1` [Compound 268, 2-(2,3-Difluoro-phenyl)-5-[4-(2-methyl-thiazol-4-yl)-benzyl]-5H-imidazo[4,5-d]pyridazine], for which the EC50 is no less than 50 µM. To `Fc1cccc(-c2nc3cnn(CCCCc4ccc(C(F)(F)F)cc4C(F)(F)F)cc-3n2)c1F` [Compound 269, 5-[4-(2,4-Bis-trifluoromethyl-phenyl)-butyl]-2-(2,3-difluoro-phenyl)-5H-imidazo[4,5-d]pyridazine] belongs 25 µM. To `Fc1cccc(-c2nc3cnn(CCCc4ccc(C(F)(F)F)cc4C(F)(F)F)cc-3n2)c1F` [Compound 270, 5-[3-(2,4-Bis-trifluoromethyl-phenyl)-propyl]-2-(2,3-difluoro-phenyl)-5H-imidazo[4,5-d]pyridazine] belongs 52.5 µM; to `COc1ccc(-c2ncc(Cn3cc4nc(-c5cccc(F)c5F)nc-4cn3)cn2)c(C(F)(F)F)c1` [Compound 271, 2-(2,3-Difluoro-phenyl)-5-[2-(4-methoxy-2-trifluoromethyl-phenyl)-pyrimidin-5-ylmethyl]-5H-imidazo[4,5-d]pyridazine], 0.049 µM. With `Fc1cccc(-c2nc3cnn(Cc4ccc(-c5ccsc5)cc4)cc-3n2)c1F` [Compound 272, 2-(2,3-Difluoro-phenyl)-5-(4-thiophen-3-yl-benzyl)-5H-imidazo[4,5-d]pyridazine], the EC50 turned out to be 18.7 µM. To `O=C(Nc1ccccc1)c1ccc(Cn2cc3nc(-c4cccc(F)c4F)nc-3cn2)cc1` [Compound 273, 4-[2-(2,3-Difluoro-phenyl)-imidazo[4,5-d]pyridazin-5-ylmethyl]-N-phenyl-benzamide] belongs no less than 50 µM. To `COc1ccc(NC(=O)c2ccc(Cn3cc4nc(-c5cccc(F)c5F)nc-4cn3)cc2)cc1` [Compound 274, 4-[2-(2,3-Difluoro-phenyl)-imidazo[4,5-d]pyridazin-5-ylmethyl]-N-(4-methoxy-phenyl)-benzamide] belongs no less than 50 µM; to `O=S(=O)(c1ccc(Cn2cc3nc(-c4cccc(F)c4F)nc-3cn2)cc1)N1CCOCC1` [Compound 275, 2-(2,3-Difluoro-phenyl)-5-[4-(morpholine-4-sulfonyl)-benzyl]-5H-imidazo[4,5-d]pyridazine], no less than 50 µM; to `Fc1cccc(-c2nc3cnn(Cc4ccc5nsnc5c4)cc-3n2)c1F` [Compound 276, 5-Benzo[1,2,5]thiadiazol-5-ylmethyl-2-(2,3-difluoro-phenyl)-5H-imidazo[4,5-d]pyridazine], no less than 50 µM. On to `Cc1nc(-c2ccc(Cn3cc4nc(-c5cccc(F)c5F)nc-4cn3)cc2)no1` [Compound 277, 2-(2,3-Difluoro-phenyl)-5-[4-(5-methyl-[1,2,4]oxadiazol-3-yl)-benzyl]-5H-imidazo[4,5-d]pyridazine], for which the EC50 was no less than 50 µM.

`Fc1cccc(-c2nc3cnn(Cc4ccc5ccccc5c4)cc-3n2)c1F` [Compound 278, 2-(2,3-Difluoro-phenyl)-5-naphthalen-2-ylmethyl-5H-imidazo[4,5-d]pyridazine] returned a half-maximal effective concentration (EC50) of no less than 50 µM. On to `Fc1cccc(-c2nc3cnn(Cc4cccc(Oc5ccccc5)c4)cc-3n2)c1F` [Compound 279, 2-(2,3-Difluoro-phenyl)-5-(3-phenoxy-benzyl)-5H-imidazo[4,5-d]pyridazine], for which the response was half-maximal at 20 µM (EC50).

For `Fc1cccc(-c2nc3cnn(Cc4ccc(OCc5ccccc5)cc4)cc-3n2)c1F` [Compound 280, 5-(4-Benzyloxy-benzyl)-2-(2,3-difluoro-phenyl)-5H-imidazo[4,5-d]pyridazine], the EC50 was no less than 50 µM. Turning to `Fc1cccc(-c2nc3cnn(Cc4ccc(/C=C/c5ccccc5)cc4)cc-3n2)c1F` [Compound 281, 2-(2,3-Difluoro-phenyl)-5-(4-styrylbenzyl)-5H-imidazo[4,5-d]pyridazine], the EC50 came to 1.8 µM.

Compound `Fc1cccc(-c2nc3cnn(Cc4ccc(-c5ccccc5)cc4)cc-3n2)c1F` [Compound 282, 5-Biphenyl-4-ylmethyl-2-(2,3-difluoro-phenyl)-5H-imidazo[4,5-d]pyridazine] had an EC50 of 0.69 µM. This EC50 lies about 2.6-fold lower than the previous one.

Regarding `Fc1cccc(-c2nc3cnn(Cc4ccc5occc5c4)cc-3n2)c1F` [Compound 283, 5-Benzofuran-5-ylmethyl-2-(2,3-difluoro-phenyl)-5H-imidazo[4,5-d]pyridazine], the EC50 is no less than 50 µM.

Compound `Fc1cccc(-c2nc3cnn(Cc4ccc5sccc5c4)cc-3n2)c1F` [Compound 284, 5-Benzothiophen-5-ylmethyl-2-(2,3-difluoro-phenyl)-5H-imidazo[4,5-d]pyridazine] yielded an EC50 of no less than 50 µM. The value for `O=[N+]([O-])c1ccc(-c2ccc(Cn3cc4nc(-c5cccc(F)c5F)nc-4cn3)cn2)c(C(F)(F)F)c1` [Compound 285, 2-(2,3-Difluoro-phenyl)-5-[6-(4-nitro-2-trifluoromethyl-phenyl)-pyridin-3-ylmethyl]-5H-imidazo[4,5-d]pyridazine] was 0.284 µM; that for `O=[N+]([O-])c1cc(C(F)(F)F)ccc1-c1ccc(Cn2cc3nc(-c4cccc(F)c4F)nc-3cn2)cn1` [Compound 286, 2-(2,3-Difluoro-phenyl)-5-[6-(2-nitro-4-trifluoromethyl-phenyl)-pyridin-3-ylmethyl]-5H-imidazo[4,5-d]pyridazine] was 0.059 µM.

Consider `COc1cccc(Cn2cc3nc(-c4cccc(F)c4F)nc-3cn2)c1` [Compound 287, 2-(2,3-Difluoro-phenyl)-5-(3-methoxy-benzyl)-5H-imidazo[4,5-d]pyridazine], for which the EC50 was no less than 50 µM.

In turn, `COC(=O)c1cc(Cn2cc3nc(-c4cccc(F)c4F)nc-3cn2)ccc1-c1ccc(OC)cc1C(F)(F)F` [Compound 288, 4-[2-(2,3-Difluoro-phenyl)-imidazo[4,5-d]pyridazin-5-ylmethyl]-4′-methoxy-2′-trifluoromethyl-biphenyl-2-carboxylic acid methyl ester] yielded an EC50 of 0.2 µM. In turn, `Fc1cccc(-c2nc3cnn(Cc4cccc(C(F)(F)F)c4)cc-3n2)c1F` [Compound 289, 2-(2,3-Difluoro-phenyl)-5-(3-trifluoromethyl-benzyl)-5H-imidazo[4,5-d]pyridazine] showed an EC50 of no less than 50 µM. `O=[N+]([O-])c1cccc(Cn2cc3nc(-c4cccc(F)c4F)nc-3cn2)c1` [Compound 290, 2-(2,3-Difluoro-phenyl)-5-(3-nitro-benzyl)-5H-imidazo[4,5-d]pyridazine] came in with an EC50 of no less than 50 µM. To `Fc1cccc(-c2nc3cnn(Cc4cccc(-n5cccn5)c4)cc-3n2)c1F` [Compound 291, 2-(2,3-Difluoro-phenyl)-5-(3-pyrazol-1-yl-benzyl)-5H-imidazo[4,5-d]pyridazine] belongs no less than 50 µM; to `Fc1cccc(-c2nc3cnn(Cc4cccc5ccccc45)cc-3n2)c1F` [Compound 292, 2-(2,3-Difluoro-phenyl)-5-naphthalen-1-ylmethyl-5H-imidazo[4,5-d]pyridazine], no less than 50 µM; to `Fc1cccc(-c2nc3cnn(Cc4ccc(-c5cncnc5)cc4)cc-3n2)c1F` [Compound 293, 2-(2,3-Difluoro-phenyl)-5-(4-pyrimidin-5-yl-benzyl)-5H-imidazo[4,5-d]pyridazine], no less than 50 µM. The value for `COc1ccc(-c2ccc(Cn3cc4nc(-c5cccc(F)c5F)nc-4cn3)c(OC)c2)c(C(F)(F)F)c1` [Compound 294, 2-(2,3-Difluoro-phenyl)-5-(3,4′-dimethoxy-2′-trifluoromethyl-biphenyl-4-ylmethyl)-5H-imidazo[4,5-d]pyridazine] was 0.473 µM; that for `CCCOc1ccc(-c2cnc(Cn3cc4nc(-c5cccc(F)c5F)nc-4cn3)cn2)c(C(F)(F)F)c1` [Compound 295, 2-(2,3-Difluoro-phenyl)-5-[5-(4-propoxy-2-trifluoromethyl-phenyl)-pyrazin-2-ylmethyl]-5H-imidazo[4,5-d]pyridazine] was 0.026 µM; that for `CCCOc1ccc(-c2ccc(Cn3cc4nc(-c5cccc(F)c5F)nc-4cn3)nc2)c(C(F)(F)F)c1` [Compound 296, 2-(2,3-Difluoro-phenyl)-5-[5-(4-propoxy-2-trifluoromethyl-phenyl)-pyridin-2-ylmethyl]-5H-imidazo[4,5-d]pyridazine] was 0.023 µM.
